Experimental data published in patent publication US7332518B2, “Carboxamides as fungicides in agriculture” (Syngenta Crop Protection, Inc., priority 2001, dated 2008).

| melting point [°C] | SMILES |
| --- | --- |
| 171 to 172 | Cn1cc(C(=O)NCC#Cc2ccccc2-c2ccc(Br)cc2)c(C(F)(F)F)n1 [Compound 2.010, 1-Methyl-3-trifluoromethyl-1H-pyrazole-4-carboxylic acid (4′-bromobiphenyl-2-yl)prop-2-ynyl-amide] |
| 146 to 149 | Cn1cc(C(=O)NC=C=Cc2ccccc2-c2ccc(Br)cc2)c(C(F)(F)F)n1 [Compound 2.123, 1-Methyl-3-trifluoromethyl-1H-pyrazole-4-carboxylic acid (4′-bromobiphenyl-2-yl)propa-1,2-dienyl-amide] |
| 142 to 144 | C#CCN(C(=O)c1cn(C)cc1C(F)(F)F)c1cccc2c1C(C)CC2(C)C (stereo not drawn) [Compound 10.3, 1-methyl-4-trifluoromethyl-1H-pyrrole-3-carboxylic acid prop-2-ynyl-(1,1,3-trimethylindan-4-yl)amide] |
